Data taken from patent US9273028B2, “Heterocyclic tyrosine kinase inhibitors” (Biogen MA Inc., priority 2010, dated 2016).
Values belong to the molecule of their own block, whether it stands above or below them.

Tests used:
Type in all cases: biochemical
[1] = target: T1, Lck (Homo sapiens, UniProt P06239); assay: Lck kinase selectivity assay (Example 142 procedure, Table 3 modifications); settings: ATP 5 μM
T1 construct: purchased Carna Bioscience 08-170
Procedure: (§1) The purpose of the Tec in vitro assay is to determine compound potency against Tec through the measurement of IC50. Compound inhibition is measured after monitoring the amount of phosphorylation of a fluorescein-labeled polyGT peptide (Invitrogen PV3610) in the presence of active Tec enzyme (Carna Biosciences 08-182), ATP, and inhibitor. The Tec kinase reaction was done in a black 96 well plate (costar 3694). For a typical assay, a 29 μL aliquot of a ATP/peptide master mix (final concentration; ATP 25 μM, polyGT 100 nM) in kinase buffer (10 mM Tris-HCl pH 7.5, 10 mM MgCl2, 200 μM Na3PO4, 5 mM DTT, 0.01% Triton X-100, and 0.2 mg/ml casein) is added to each well. Next, 1 μL of a 3-fold, 50× compound titration in 100% DMSO solvent is added, followed by adding 20 uL of Tec enzyme mix in 1× kinase buffer (with a final concentration of 0.125 nM). The assay is incubated for 15 minutes before being stopped with 5 μl, of a 220 mM EDTA solution. Aliquots (5 μL) of the kinase reaction are transferred to a low volume white 384 well plate (Corning 3674), and 5 μL of a 2× detection buffer (Invitrogen PV3574, with 2 nM Tb-PY20 antibody, Invitrogen PV3552) is added. The plate is covered and incubated for 45 minutes at room temperature. Time resolved fluorescence (TRF) on Molecular Devices M5 (332 nm excitation; 488 nm emission; 518 nm fluorescein emission) is measured.
(§2) Using the procedure described in Example 142, with the modifications shown in Table 3, selectivity for Itk, Txk, and Lck was measured.

[2] = target: T2, BTK (Homo sapiens, UniProt Q06187); assay: In vitro BTK kinase assay (BTK-POLYGAT-LS); settings: IC50 (10 uM ATP)
T2 construct: purchased Upstate 14-552
Outline: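 Poly-GAT peptide at 100 nM with 10 μM ATP (final) in pH 7.5 Tris buffer containing MgCl2, DTT, Triton X-100 and 0.2 mg/ml casein.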

[3] = target: T3, Txk (Homo sapiens, UniProt P42681); assay: Txk kinase selectivity assay (Example 142 procedure, Table 3 modifications); settings: ATP 100 μM
T3 construct: purchased Carna Bioscience 08-183
T3 sequence (P42681 1-527): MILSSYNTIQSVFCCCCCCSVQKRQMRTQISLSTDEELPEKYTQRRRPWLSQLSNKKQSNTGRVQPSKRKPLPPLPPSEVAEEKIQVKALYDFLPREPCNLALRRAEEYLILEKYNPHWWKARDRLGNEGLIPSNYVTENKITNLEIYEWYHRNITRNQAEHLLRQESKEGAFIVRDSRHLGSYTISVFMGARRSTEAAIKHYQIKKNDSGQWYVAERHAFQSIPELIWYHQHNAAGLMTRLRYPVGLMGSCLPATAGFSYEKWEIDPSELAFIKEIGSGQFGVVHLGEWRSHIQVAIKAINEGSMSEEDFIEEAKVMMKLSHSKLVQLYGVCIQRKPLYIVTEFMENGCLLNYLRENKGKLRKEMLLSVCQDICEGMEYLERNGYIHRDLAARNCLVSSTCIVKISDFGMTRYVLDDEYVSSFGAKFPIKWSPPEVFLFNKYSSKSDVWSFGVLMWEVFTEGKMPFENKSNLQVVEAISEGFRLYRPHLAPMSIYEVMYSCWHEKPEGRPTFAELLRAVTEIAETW
Procedure: as §1, §2

[4] = target: T4, Itk (Homo sapiens, UniProt Q08881); assay: Itk kinase selectivity assay (Example 142 procedure, Table 3 modifications); settings: ATP 10 μM
T4 construct: purchased Carna Bioscience 08-181
T4 sequence (Q08881 1-620): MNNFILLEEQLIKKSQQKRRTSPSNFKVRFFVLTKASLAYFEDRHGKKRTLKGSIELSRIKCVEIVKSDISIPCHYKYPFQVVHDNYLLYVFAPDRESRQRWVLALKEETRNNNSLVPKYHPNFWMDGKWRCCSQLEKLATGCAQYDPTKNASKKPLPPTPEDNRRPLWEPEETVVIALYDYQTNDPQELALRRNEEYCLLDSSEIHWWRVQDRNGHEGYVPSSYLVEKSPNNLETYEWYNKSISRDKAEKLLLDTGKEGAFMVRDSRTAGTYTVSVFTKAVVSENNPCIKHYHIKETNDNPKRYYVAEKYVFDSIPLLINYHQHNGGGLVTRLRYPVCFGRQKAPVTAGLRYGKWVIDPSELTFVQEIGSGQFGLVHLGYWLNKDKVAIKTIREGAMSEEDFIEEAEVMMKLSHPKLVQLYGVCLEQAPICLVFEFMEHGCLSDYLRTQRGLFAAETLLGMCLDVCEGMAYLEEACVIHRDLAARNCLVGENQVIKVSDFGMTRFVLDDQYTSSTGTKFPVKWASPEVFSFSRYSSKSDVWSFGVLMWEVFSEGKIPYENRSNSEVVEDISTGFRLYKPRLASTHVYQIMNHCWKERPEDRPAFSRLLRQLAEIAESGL
Procedure: as §1, §2

[5] = target: T5, Tec (Homo sapiens, UniProt P42680); assay: In vitro Tec kinase selectivity assay (Tec-POLYGT-LS); settings: ATP 25 μM
T5 construct: purchased Carna Biosciences 08-182
T5 sequence (P42680 1-631): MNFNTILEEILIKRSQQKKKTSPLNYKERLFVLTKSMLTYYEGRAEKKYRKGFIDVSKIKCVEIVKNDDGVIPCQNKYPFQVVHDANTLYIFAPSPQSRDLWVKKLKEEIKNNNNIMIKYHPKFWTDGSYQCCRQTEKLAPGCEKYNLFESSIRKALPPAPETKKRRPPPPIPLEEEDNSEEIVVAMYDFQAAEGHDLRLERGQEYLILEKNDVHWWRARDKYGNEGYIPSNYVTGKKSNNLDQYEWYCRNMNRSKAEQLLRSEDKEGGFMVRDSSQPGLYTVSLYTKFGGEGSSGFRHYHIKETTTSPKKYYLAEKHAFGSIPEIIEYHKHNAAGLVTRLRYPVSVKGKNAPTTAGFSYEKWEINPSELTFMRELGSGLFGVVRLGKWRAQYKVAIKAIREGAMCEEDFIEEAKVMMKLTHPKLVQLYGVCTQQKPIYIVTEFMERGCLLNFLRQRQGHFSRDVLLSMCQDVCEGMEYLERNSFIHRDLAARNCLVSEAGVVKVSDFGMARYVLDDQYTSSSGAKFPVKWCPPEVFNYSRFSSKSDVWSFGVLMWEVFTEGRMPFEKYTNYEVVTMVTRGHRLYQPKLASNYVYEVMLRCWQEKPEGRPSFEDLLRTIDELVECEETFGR
Procedure: In Vitro Tec Kinase Selectivity Assay
as §1

T2 sequence (Q06187 whole entry): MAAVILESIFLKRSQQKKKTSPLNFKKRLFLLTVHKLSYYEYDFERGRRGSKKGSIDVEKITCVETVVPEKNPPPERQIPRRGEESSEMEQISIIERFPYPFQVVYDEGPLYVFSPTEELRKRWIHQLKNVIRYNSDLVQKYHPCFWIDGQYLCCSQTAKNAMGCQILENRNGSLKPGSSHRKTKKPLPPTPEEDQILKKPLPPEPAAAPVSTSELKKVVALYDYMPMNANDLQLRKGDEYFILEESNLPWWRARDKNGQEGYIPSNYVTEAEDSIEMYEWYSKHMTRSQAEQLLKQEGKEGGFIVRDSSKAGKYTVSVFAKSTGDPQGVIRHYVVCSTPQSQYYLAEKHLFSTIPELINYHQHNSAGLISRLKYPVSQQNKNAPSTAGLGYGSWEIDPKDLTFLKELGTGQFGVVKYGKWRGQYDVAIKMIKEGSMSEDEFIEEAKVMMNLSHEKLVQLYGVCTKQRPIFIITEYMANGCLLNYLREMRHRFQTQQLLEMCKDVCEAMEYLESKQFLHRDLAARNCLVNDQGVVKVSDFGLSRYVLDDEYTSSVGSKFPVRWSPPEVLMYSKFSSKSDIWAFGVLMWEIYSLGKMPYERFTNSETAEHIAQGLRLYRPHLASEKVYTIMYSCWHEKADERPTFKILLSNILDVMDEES
T1 sequence (P06239 whole entry): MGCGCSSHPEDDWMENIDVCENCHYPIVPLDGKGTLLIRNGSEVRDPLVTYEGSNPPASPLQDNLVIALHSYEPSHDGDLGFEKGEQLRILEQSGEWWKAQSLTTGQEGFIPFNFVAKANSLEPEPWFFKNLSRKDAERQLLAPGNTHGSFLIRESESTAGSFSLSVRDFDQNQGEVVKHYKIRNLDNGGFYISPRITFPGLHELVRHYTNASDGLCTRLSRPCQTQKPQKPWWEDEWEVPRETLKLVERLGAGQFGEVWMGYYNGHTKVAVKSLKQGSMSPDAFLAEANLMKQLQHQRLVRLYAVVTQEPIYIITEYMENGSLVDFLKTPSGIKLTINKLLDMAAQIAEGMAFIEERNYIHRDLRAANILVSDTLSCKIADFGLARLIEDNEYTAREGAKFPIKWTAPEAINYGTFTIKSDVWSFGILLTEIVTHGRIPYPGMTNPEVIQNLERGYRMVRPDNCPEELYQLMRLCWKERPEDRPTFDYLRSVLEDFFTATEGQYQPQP

SMILES: CC[C@@H](Nc1cc(Cl)cc(Cl)c1)C(=O)N1CCC2CCN(c3ncnc4[nH]ccc34)C2C1 (stereo partly shown) [Compound 99]
IC50 [1]: 0.1 to 0.999 µM
IC50 [2]: < 0.1 µM
IC50 [3]: 1 to 10 µM
IC50 [4]: 0.1 to 0.999 µM
IC50 [5]: 0.1 to 0.999 µM

SMILES: CCC[C@@H](Nc1cc(F)cc(Cl)c1)C(=O)N1CCC2CCN(c3ncnc4[nH]ccc34)C2C1 (stereo partly shown) [Compound 100]
IC50 [1]: 0.1 to 0.999 µM
IC50 [2]: < 0.1 µM
IC50 [3]: 1 to 10 µM
IC50 [4]: 0.1 to 0.999 µM
IC50 [5]: 0.1 to 0.999 µM

SMILES: O=C(CNc1cc(Cl)cc(Cl)c1)N1CC[C@@H]2CCN(c3ncnc4[nH]ccc34)[C@@H]2C1 [Compound 124]
IC50 [1]: 0.1 to 0.999 µM
IC50 [3]: 0.1 to 0.999 µM
IC50 [4]: 0.1 to 0.999 µM
IC50 [5]: < 0.1 µM

SMILES: CN(c1ncnc2[nH]ccc12)C1CCCCN(C(=O)CNc2cc(Cl)cc(Cl)c2)C1 (stereo not shown) [Compound 143]
IC50 [1]: > 10 µM
IC50 [3]: > 10 µM
IC50 [4]: > 10 µM
IC50 [5]: > 10 µM

SMILES: CN(c1ncnc2[nH]ncc12)C1CCCCN(C(=O)CNc2cc(Cl)cc(Cl)c2)C1 (stereo not shown) [Compound 167]
IC50 [1]: 1 to 10 µM
IC50 [3]: > 10 µM
IC50 [4]: 1 to 10 µM
IC50 [5]: 0.1 to 0.999 µM

SMILES: O=C([C@H](Nc1cc(Cl)cc(Cl)c1)C1CC1)N1CCC2CCN(c3ncnc4[nH]ccc34)C2C1 (stereo partly shown) [Compound 176]
IC50 [1]: 0.1 to 0.999 µM
IC50 [2]: < 0.1 µM
IC50 [3]: 1 to 10 µM
IC50 [4]: 1 to 10 µM
IC50 [5]: 1 to 10 µM

SMILES: O=C(CNc1cc(Cl)cc(Cl)c1)N1CCC2CCN(c3ncnc4[nH]ccc34)C2C1 (stereo not shown) [Compound 183]
IC50 [1]: 0.1 to 0.999 µM
IC50 [3]: 0.1 to 0.999 µM
IC50 [4]: < 0.1 µM
IC50 [5]: < 0.1 µM

Further lines, results first:

IC50 [1]: 0.1 to 0.999 µM
IC50 [2]: < 0.1 µM
IC50 [3]: > 10 µM
IC50 [4]: 0.1 to 0.999 µM
IC50 [5]: 0.1 to 0.999 µM
SMILES: O=C(CNc1cc(Cl)cc(Cl)c1)N1Cc2ccccc2C(Nc2ncnc3[nH]ccc23)C1 (stereo not shown) [Compound 96]

IC50 [1]: > 10 µM
IC50 [3]: 1 to 10 µM
IC50 [4]: 1 to 10 µM
IC50 [5]: 1 to 10 µM
SMILES: O=C(CNc1ccccc1S(=O)(=O)N1CCCCC1)N1CCC2CCN(c3ncnc4[nH]ccc34)C2C1 (stereo not shown) [Compound 113]

IC50 [1]: > 10 µM
IC50 [3]: 0.1 to 0.999 µM
IC50 [4]: 0.1 to 0.999 µM
IC50 [5]: 0.1 to 0.999 µM
SMILES: O=C(CNc1ccccc1S(=O)(=O)c1ccccc1)N1CCC2CCN(c3ncnc4[nH]ccc34)C2C1 (stereo not shown) [Compound 114]

IC50 [1]: 0.1 to 0.999 µM
IC50 [3]: 0.1 to 0.999 µM
IC50 [4]: < 0.1 µM
IC50 [5]: < 0.1 µM
SMILES: O=C(CNc1cc(Cl)cc(Cl)c1)N1CC[C@H]2CCN(c3ncnc4[nH]ccc34)[C@H]2C1 [Compound 123]

IC50 [1]: > 10 µM
IC50 [2]: < 0.1 µM
IC50 [3]: > 10 µM
IC50 [4]: > 10 µM
IC50 [5]: > 10 µM
SMILES: O=C(CNc1cc(Cl)cc(Cl)c1)N1CC2CC(Nc3ncnc4[nH]ccc34)C1C2 (stereo not shown) [Compound 174]

IC50 [1]: 0.1 to 0.999 µM
IC50 [2]: < 0.1 µM
IC50 [3]: 1 to 10 µM
IC50 [4]: 0.1 to 0.999 µM
IC50 [5]: 0.1 to 0.999 µM
SMILES: O=C(CNc1cc(Cl)cc(Cl)c1)N1CCC2CCN(c3ncnc4[nH]ncc34)C2C1 (stereo not shown) [Compound 192]

IC50 [1]: 0.1 to 0.999 µM
IC50 [3]: 1 to 10 µM
IC50 [4]: 0.1 to 0.999 µM
IC50 [5]: 0.1 to 0.999 µM
SMILES: CN(c1ncnc2[nH]ccc12)[C@@H]1CCCN(C(=O)CNc2cc(Cl)cc(Cl)c2)C1 [Compound 209]

IC50 [1]: 1 to 10 µM
IC50 [2]: < 0.1 µM
IC50 [3]: 1 to 10 µM
IC50 [4]: 0.1 to 0.999 µM
IC50 [5]: 0.1 to 0.999 µM
SMILES: CC(C)CN(CC(C)C)S(=O)(=O)c1ccccc1NCC(=O)N1CCC[C@@H](Nc2ncnc3[nH]ncc23)C1 [Compound 217]

IC50 [1]: > 10 µM
IC50 [3]: > 10 µM
IC50 [4]: 1 to 10 µM
IC50 [5]: 0.1 to 0.999 µM
SMILES: O=C(CNc1cc(Cl)cc(Cl)c1)N1CCC[C@@H](Nc2ncnc3[nH]ccc23)C1 [Compound 220]

IC50 [1]: 1 to 10 µM
IC50 [2]: < 0.1 µM
IC50 [3]: > 10 µM
IC50 [4]: 1 to 10 µM
IC50 [5]: 0.1 to 0.999 µM
SMILES: O=C(CNc1cc(Cl)cc(Cl)c1)N1CCC[C@@H](Nc2ncnc3[nH]ncc23)C1 [Compound 222]
